Measured values reported in ChEMBL document CHEMBL1154899, “Synthesis and biological evaluation of caffeic acid 3,4-dihydroxyphenethyl ester” (J Nat Prod, 2010).

Tests used:
Assay type in all cases: functional
MDA-MB-231 = experiment: Antiproliferative activity against human MDA-MB-231 cells assessed as cell growth at 50 uM by SRB assay; details: read-out: Activity
MDA-MB-435 = experiment: Antiproliferative activity against human MDA-MB-435 cells assessed as cell growth at 5 mM by SRB assay; details: read-out: Activity
LOX IMVI [1] = experiment: Antiproliferative activity against human LOXIMVI cells assessed as cell growth at 0.5 uM by SRB assay; details: read-out: Activity
A549 = experiment: Antiproliferative activity against human A549 cells assessed as cell growth at 500 uM by SRB assay; details: read-out: Activity
SNB-19 = experiment: Antiproliferative activity against human SNB19 cells by SRB assay
[2] = Antiproliferative activity against human Hs 578T cells assessed as cell growth at 500 uM by SRB assay; details: read-out: Activity
KM12 [3] = experiment: Antiproliferative activity against human KM12 cells assessed as cell growth at 50 uM by SRB assay; details: read-out: Activity
SK-MEL-2 = experiment: Antiproliferative activity against human SK-MEL-2 cells assessed as cell growth at 500 uM by SRB assay; details: read-out: Activity
NCI-H23 [4] = experiment: Antiproliferative activity against human NCI-H23 cells by SRB assay
SR [5] = experiment: Antiproliferative activity against human SR cells assessed as cell growth at 5 uM by SRB assay; details: read-out: Activity
NCI-H522 [6] = experiment: Antiproliferative activity against human NCI-H522 cells assessed as cell growth at 500 uM by SRB assay; details: read-out: Activity
MOLT-4 [7] = experiment: Antiproliferative activity against human MOLT4 cells assessed as cell growth at 5 uM by SRB assay; details: read-out: Activity
[8] = Antiproliferative activity against human Hs 578T cells assessed as cell growth at 50 uM by SRB assay; details: read-out: Activity
KM12 [9] = experiment: Antiproliferative activity against human KM12 cells assessed as cell growth at 5 uM by SRB assay; details: read-out: Activity
BT-549 [10] = experiment: Antiproliferative activity against human BT549 cells by SRB assay
SF-268 [11] = experiment: Antiproliferative activity against human SF268 cells assessed as cell growth at 500 uM by SRB assay; details: read-out: Activity
NCI-H23 [12] = experiment: Antiproliferative activity against human NCI-H23 cells assessed as cell growth at 0.5 uM by SRB assay; details: read-out: Activity
U-251 = experiment: Antiproliferative activity against human U251 cells by SRB assay
UACC-257 [13] = experiment: Antiproliferative activity against human UACC257 cells assessed as cell growth at 0.5 uM by SRB assay; details: read-out: Activity
SF-268 [14] = experiment: Antiproliferative activity against human SF268 cells assessed as cell growth at 0.5 uM by SRB assay; details: read-out: Activity
NCI-H522 [15] = experiment: Antiproliferative activity against human NCI-H522 cells assessed as cell growth at 0.5 uM by SRB assay; details: read-out: Activity
OVCAR-4 = experiment: Antiproliferative activity against human OVCAR4 cells assessed as cell growth at 50 uM by SRB assay; details: read-out: Activity
SW-620 = experiment: Antiproliferative activity against human SW620 cells assessed as cell growth at 50 uM by SRB assay; details: read-out: Activity
BT-549 [16] = experiment: Antiproliferative activity against human BT549 cells assessed as cell growth at 0.5 uM by SRB assay; details: read-out: Activity
SF-295 = experiment: Antiproliferative activity against human SF295 cells assessed as cell growth at 50 uM by SRB assay; details: read-out: Activity
DU-145 = experiment: Antiproliferative activity against human DU145 cells assessed as cell growth at 5 uM by SRB assay; details: read-out: Activity
HOP-92 = experiment: Antiproliferative activity against human HOP92 cells assessed as cell growth at 500 uM by SRB assay; details: read-out: Activity
MOLT-4 [17] = experiment: Antiproliferative activity against human MOLT4 cells assessed as cell growth at 5 mM by SRB assay; details: read-out: Activity
MCF7 [18] = experiment: Antiproliferative activity against human MCF7 cells assessed as cell growth at 5 mM by SRB assay; details: read-out: Activity
COLO 205 = experiment: Antiproliferative activity against human COLO205 cells assessed as cell growth at 5 uM by SRB assay; details: read-out: Activity
HL-60(TB) [19] = experiment: Antiproliferative activity against human HL-60(TB) cells assessed as cell growth at 5 uM by SRB assay; details: read-out: Activity
LOX IMVI [20] = experiment: Antiproliferative activity against human LOXIMVI cells by SRB assay
Malme-3M = experiment: Antiproliferative activity against human MALME-3M cells assessed as cell growth at 0.5 uM by SRB assay; details: read-out: Activity
SR [21] = experiment: Antiproliferative activity against human SR cells assessed as cell growth at 0.5 uM by SRB assay; details: read-out: Activity
MCF7 [22] = experiment: Antiproliferative activity against human MCF7 cells assessed as cell growth at 500 uM by SRB assay; details: read-out: Activity
HL-60(TB) [23] = experiment: Antiproliferative activity against human HL-60(TB) cells assessed as cell growth at 500 uM by SRB assay; details: read-out: Activity
IGROV-1 = experiment: Antiproliferative activity against human IGROV1 cells assessed as cell growth at 5 uM by SRB assay; details: read-out: Activity
SK-OV-3 = experiment: Antiproliferative activity against human SKOV3 cells assessed as cell growth at 5 uM by SRB assay; details: read-out: Activity
SN12C = experiment: Antiproliferative activity against human SN12C cells assessed as cell growth at 500 uM by SRB assay; details: read-out: Activity
UACC-257 [24] = experiment: Antiproliferative activity against human UACC257 cells assessed as cell growth at 50 uM by SRB assay; details: read-out: Activity
A498 = experiment: Antiproliferative activity against human A498 cells assessed as cell growth at […] by SRB assay; details: read-out: Activity
OVCAR-3 = experiment: Antiproliferative activity against human OVCAR-3 cells by SRB assay
NCI/ADR-RES = experiment: Antiproliferative activity against human NCI/ADR-RES cells assessed as cell growth at 50 uM by SRB assay; details: read-out: Activity
EKVX = experiment: Antiproliferative activity against human EKVX cells assessed as cell growth at 500 uM by SRB assay; details: read-out: Activity
[25] = read-out: LC50 (the source's name)
[26] = read-out: pLC50 (the source's name) (converted)

SMILES: O=C(/C=C/c1ccc(O)c(O)c1)OCCc1ccc(O)c(O)c1
- growth at 50 µM (MDA-MB-231): 97%
- growth at 5000 µM (MDA-MB-435): 17%
- growth at 0.5 µM (LOX IMVI [1]): 92%
- growth at 500 µM (A549): 96%
- GI50 (SNB-19; read-out: GI50): 15.5 µM
- CC50 (SNB-19; [25]): > 50 µM
- TGI (SNB-19; read-out: TGI): > 50 µM
- GI50 (SNB-19; read-out: pGI50 (converted)): 15.5 µM
- CC50 (SNB-19; [26]): > 50.1 µM
- TGI (SNB-19; read-out: pTGI): > 50.1 µM
- growth at 500 µM [2]: 67%
- growth at 50 µM (KM12 [3]): 81%
- growth at 500 µM (SK-MEL-2): 38%
- GI50 (NCI-H23 [4]; read-out: GI50): 11.6 µM
- CC50 (NCI-H23 [4]; [25]): > 50 µM
- TGI (NCI-H23 [4]; read-out: TGI): > 50 µM
- GI50 (NCI-H23 [4]; read-out: pGI50 (converted)): 11.5 µM
- CC50 (NCI-H23 [4]; [26]): > 50.1 µM
- TGI (NCI-H23 [4]; read-out: pTGI): > 50.1 µM
- growth at 5 µM (SR [5]): 81%
- growth at 500 µM (NCI-H522 [6]): 10%
- growth at 5 µM (MOLT-4 [7]): 97%
- growth at 50 µM [8]: 80%
- growth at 5 µM (KM12 [9]): 95%
- GI50 (BT-549 [10]; read-out: GI50): 8.67 µM
- CC50 (BT-549 [10]; [25]): > 50 µM
- TGI (BT-549 [10]; read-out: TGI): > 50 µM
- GI50 (BT-549 [10]; read-out: pGI50 (converted)): 8.32 µM
- CC50 (BT-549 [10]; [26]): > 50.1 µM
- TGI (BT-549 [10]; read-out: pTGI): > 50.1 µM
- growth at 500 µM (SF-268 [11]): 57%
- growth at 0.5 µM (NCI-H23 [12]): 90%
- GI50 (U-251; read-out: GI50): 8.86 µM
- CC50 (U-251; [25]): > 50 µM
- TGI (U-251; read-out: TGI): > 50 µM
- GI50 (U-251; read-out: pGI50 (converted)): 8.71 µM
- CC50 (U-251; [26]): > 50.1 µM
- TGI (U-251; read-out: pTGI): > 50.1 µM
- growth at 0.5 µM (UACC-257 [13]): 93%
- growth at 0.5 µM (SF-268 [14]): 94%
- growth at 0.5 µM (NCI-H522 [15]): 74%
- growth at 50 µM (OVCAR-4): 92%
- growth at 50 µM (SW-620): 98%
- growth at 0.5 µM (BT-549 [16]): 94%
- growth at 50 µM (SF-295): 87%
- growth at 5 µM (DU-145): 101%
- growth at 500 µM (HOP-92): 29%
- growth at 5000 µM (MOLT-4 [17]): 4%
- growth at 5000 µM (MCF7 [18]): 5%
- growth at 5 µM (COLO 205): 94%
- growth at 5 µM (HL-60(TB) [19]): 85%
- GI50 (LOX IMVI [20]; read-out: GI50): 6.38 µM
- CC50 (LOX IMVI [20]; [25]): > 50 µM
- TGI (LOX IMVI [20]; read-out: TGI): 35.1 µM
- GI50 (LOX IMVI [20]; read-out: pGI50 (converted)): 6.31 µM
- CC50 (LOX IMVI [20]; [26]): > 50.1 µM
- TGI (LOX IMVI [20]; read-out: pTGI (converted)): 35.5 µM
- growth at 0.5 µM (Malme-3M): 91%
- growth at 0.5 µM (SR [21]): 92%
- growth at 500 µM (MCF7 [22]): 45%
- growth at 500 µM (HL-60(TB) [23]): 37%
- growth at 5 µM (IGROV-1): 102%
- growth at 5 µM (SK-OV-3): 96%
- growth at 500 µM (SN12C): 65%
- growth at 50 µM (UACC-257 [24]): 92%
- growth (A498): -11%
- GI50 (OVCAR-3; read-out: GI50): 5.17 µM
- CC50 (OVCAR-3; [25]): > 50 µM
- TGI (OVCAR-3; read-out: TGI): > 50 µM
- GI50 (OVCAR-3; read-out: pGI50 (converted)): 5.13 µM
- CC50 (OVCAR-3; [26]): > 50.1 µM
- TGI (OVCAR-3; read-out: pTGI): > 50.1 µM
- growth at 50 µM (NCI/ADR-RES): 99%
- growth at 500 µM (EKVX): 78%
